{"source": "patent US20200384072A1", "about": "“THERAPY OF IONIZING RADIATION-INDUCED DISORDERS” (SCK-CEN, priority 2019, published 2020)", "key": {"[1]": {"target": "T1, Cx43 hemichannels (Homo sapiens, UniProt P17302)", "T1 construct": "endogenous in cells; host or cells: TICAE and TIME cells (human endothelial cell lines)", "T1 sequence (P17302 whole entry)": "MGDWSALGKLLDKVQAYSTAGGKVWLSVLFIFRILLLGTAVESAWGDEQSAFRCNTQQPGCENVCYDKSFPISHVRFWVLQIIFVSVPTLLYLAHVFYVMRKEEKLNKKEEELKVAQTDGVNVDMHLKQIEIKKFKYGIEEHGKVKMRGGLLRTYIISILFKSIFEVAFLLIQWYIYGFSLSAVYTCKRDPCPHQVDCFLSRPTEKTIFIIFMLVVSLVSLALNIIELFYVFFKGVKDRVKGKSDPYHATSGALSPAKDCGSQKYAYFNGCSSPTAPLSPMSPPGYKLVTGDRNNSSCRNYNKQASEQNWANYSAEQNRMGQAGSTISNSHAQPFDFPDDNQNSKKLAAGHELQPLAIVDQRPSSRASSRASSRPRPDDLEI", "assay": "Extracellular ATP release after irradiation, TICAE cells", "assay_type": "cell-based", "procedure": "(§1) Hemichannels are an ATP release pathway and we therefore determined extracellular ATP after irradiation. To that purpose, TICAE and TIME cells were seeded in a 96-well plate at a density of 1×10^5 cells/well and 0.3×10^5 cells/well, respectively, in six to eight biological replicates. Three days later, cells reached 100% confluence. At 30 minutes before irradiation, cells were refreshed with 100 μl medium alone or with medium supplemented with 100 μM TAT-Gap19 (Genosphere Biotechnologies, Paris, France) to block the Cx43 hemichannels. For fractionated irradiation, cells were refreshed with 150 μl medium/well. At different time points after irradiation (1, 6 and 72 h), 1:5 ATP assay mix dissolved in ATP mix dilution buffer (Sigma-Aldrich Co. LCC, Diegem, Belgium) was added to each well. Extracellular ATP release was assessed by measuring the luminescence signal received after oxidation of luciferin and ATP to oxyluciferin and AMP using the CLARIOstar® microplate reader (BMG Labtech, Temse, Belgium). Experiments were corrected for baseline ATP signal in medium in the absence or presence of TAT-Gap19."}, "[2]": {"target": "T1, Cx43 hemichannels", "assay": "Extracellular ATP release after irradiation, TIME cells", "assay_type": "cell-based", "procedure": "as §1"}, "[3]": {"test_system": "TIME cells", "assay": "Intracellular ROS, CM-H2DCFDA IncuCyte live cell imaging, TIME cells", "assay_type": "cell-based, human", "settings": "100 μM TAT-Gap19, 0.1 Gy, 45 min p.i.", "procedure": "In order to further assess intracellular ROS production, IncuCyte live cell imaging was used to have fast imaging in large number of replicates over multiple time points. TICAE and TIME cells were seeded in 96-well plate in 16 replicates at a density of 10000 cells/well. Three days later, cells reached 100% confluence. At 30 minutes before irradiation, a fresh MesoEndo Cell Growth Medium without phenol red (Sigma-Aldrich Co. LCC, Diegem, Belgium) supplemented with 10 μmol/L of the CM-H2DCFDA dye (Sigma-Aldrich Co. LCC, Diegem, Belgium) was added to the cells, with or without 100 μM TAT-Gap19 (Genosphere Biotechnologies, Paris, France). Fluorescence signals were measured at 45 min, 2 h and 3 h after irradiation (CM-H2DCFDA dye became saturated due to photoactivaton, and leaked outside the cells after this time) using the IncuCyte ZOOM® system (Essen BioScience, Ann Arbor, Mich., USA), 10× objective and FITC filter. […] Images were analysed making use of the software package provided by the manufacturer; we used a training set of images from different doses to define the image processing procedure. The so called Top-Hat background subtraction method was applied by measuring the radius of the fluorescence object (30 μm), and adjust a threshold of 1.5 (above the local background fluorescent intensity level), as described in IncuCyte™ Background Fluorescence Technical Note. […]"}, "[4]": {"test_system": "TIME cells", "assay": "Senescence-associated β-galactosidase CPRG assay, TIME cells", "assay_type": "cell-based, human", "procedure": "TICAE and TIME cells were seeded in 96 well plates at a density of 10000 cells/well in 16 replicates. Three days after, cells were at 100% confluent. At 30 minutes before X-ray exposure, the cells were refreshed with 150 μl medium alone or with medium supplemented with 100 μM TAT-Gap19 (Genosphere Biotechnologies, Paris, France). For 7 d and 9 d post irradiation experiments, the medium was refreshed once, while for 14 d post irradiation experiment the medium was refreshed twice with 200 μl medium alone or with medium supplemented with 100 μM TAT-Gap19. At 7, 9 and 14 days post irradiation, cell number was determined using an Incucyte® ZOOM life cell analysis system and related software (Essen Bioscience, Hertfordshire, United Kingdom). Afterwards, the senescence associated β-galactosidase activity in the cells was determined using the chlorophenol red β-D-galactopyranoside (CPRG) assay as described previously. The cells were washed with PBS and lysed using M-PER™ buffer (Thermo Fisher Scientific, Asse, Belgium). Subsequently, 1×CPRG substrate (2 mM Chloropenol Red β-D-galactopyranoside in CPRG assay buffer containing 50 mM KPO4, 1 mM MgCl2, pH 6) (Sigma-Aldrich, Overijse, Belgium) was added to each well and the plates incubated for 18 h at 37° C. without CO2. A CLARIOstar® microplate reader (BMG Labtech, Temse, Belgium) was used to measure the absorbance at 570 nm."}, "[5]": {"test_system": "TIME cells", "assay": "IGFBP-7 and GDF-15 multiplex-based assays, TIME cells", "assay_type": "cell-based, human", "settings": "7 d p.i.", "procedure": "TICAE and TIME cells were seeded in a 6-well plate at a density of 2.5×10^5 cells/well in 5 to 6 biological replicates. Two to three days later, cells reached 100% confluence. At 30 minutes before X-ray exposure, cells were refreshed with medium with or without 100 μM TAT-Gap19 (Genosphere Biotechnologies, Paris, France). At 24 h, 48 h, 72 h and 7 d after irradiation, the supernatant was collected. Medium was changed only for the 7 d time point experiment at the fourth day with fresh medium alone or with medium supplemented with 100 μM TAT-Gap19. For the simultaneous detection of multiple cytokines in the supernatants, the Magnetic Luminex® Assay (R&D systems, Minneapolis, […]) was used following manufacturer's instructions. Briefly, supernatants, standards and microparticles were incubated into a 96-well plate which was pre-coated with cytokine-specific antibodies. The immobilized antibodies were able to bind the cytokines of interest after 2 h incubation, then the plate was washed and incubation with a biotinylated antibody cocktail specific to the cytokines of interest was performed for 1 h. A second wash was performed to remove the unbound biotinylated antibodies. Further, a streptavidin-phycoerythrin conjugate was added to each well to bind to the biotinylated antibodies. After a final wash, the microparticles were resuspended in buffer and read using the Luminex® MAGPIX Analyzer (R&D systems, Minneapolis, […])."}, "[6]": {"target": "hemichannels composed of Cx43 (Homo sapiens, UniProt P17302)", "sequence (P17302 whole entry)": "as above", "settings": "cited from earlier work"}, "[7]": {"settings": "100 μM TAT-Gap19, fractionated irradiation 0.1 and 5 Gy, 72 h p.i."}}}
{"substance": "TAT-Gap19: connexin mimetic peptide, amino-acids 128-136 of the CL of Cx43 (SEQ ID NO: 2), Gap19 linked to TAT sequence; Cx43 hemichannel inhibitor (YGRKKRRQRRRKQIEIKKFK)", "values": [{"measurement": "radiation-induced ATP release", "setting": "[1]; [7]", "value": "significantly inhibited the 5 Gy responses only"}, {"measurement": "radiation-induced ATP release", "setting": "[1]; 100 μM TAT-Gap19, single 0.1 and 5 Gy, 1 h p.i.", "value": "no inhibition was observed"}, {"measurement": "radiation-induced ATP release", "setting": "[1]; 100 μM TAT-Gap19, single 5 Gy, all cases except 1 h p.i. (6 h, 72 h)", "value": "significantly reduced the ATP release"}, {"measurement": "radiation-induced ATP release", "setting": "[2]; [7]", "value": "significantly inhibited the 5 Gy responses only"}, {"measurement": "radiation-induced ATP release", "setting": "[2]; 100 μM TAT-Gap19, single 0.1 Gy, 1 h p.i.", "value": "no inhibition was observed"}, {"measurement": "radiation-induced ATP release", "setting": "[2]; 100 μM TAT-Gap19, single 0.1 and 5 Gy, 1, 6, 72 h p.i., most cases", "value": "significantly inhibited the radiation-induced ATP release"}, {"measurement": "ROS production (IncuCyte)", "setting": "[3]", "value": "reduced ROS production only significantly for the 0.1 Gy dose"}, {"measurement": "SA β-gal activity", "setting": "[4]; 100 μM TAT-Gap19, 0 Gy, 0.1 Gy and 5 Gy, 7 d p.i.", "value": "significantly reduced SA β-gal activity in all conditions"}, {"measurement": "SA β-gal activity (radiation responses)", "setting": "[4]; 100 μM TAT-Gap19, 0.1 Gy and 5 Gy, 14 d p.i.", "value": "significantly inhibited these responses"}, {"measurement": "SA β-gal activity", "setting": "[4]; 100 μM TAT-Gap19, 5 Gy, 9 d p.i.", "value": "significantly reduced SA β-gal activity"}, {"measurement": "SA β-gal activity", "setting": "[4]; 100 μM TAT-Gap19, control condition, 9 d p.i.", "value": "unexpectedly increased SA β-gal activity"}, {"measurement": "GDF-15", "setting": "[5]; 100 μM TAT-Gap19, 0, 0.1 and 5 Gy", "value": "significantly inhibited these responses in all treated conditions"}, {"measurement": "IGFBP-7 control readout", "setting": "[5]; 100 μM TAT-Gap19, 0 Gy control", "value": "increased"}, {"measurement": "IGFBP-7", "setting": "[5]; 100 μM TAT-Gap19, 0.1 Gy", "value": "acted in a significantly inhibitory way"}, {"measurement": "IGFBP-7 (radiation-induced increase)", "setting": "[5]; 100 μM TAT-Gap19, 5 Gy", "value": "not inhibited"}, {"measurement": "half-time of Cx43 hemichannel block", "setting": "[6]", "value": 100, "unit": "s"}]}
